Data taken from patent US20030114482A1, “Use of retinoid receptor antagonists or agonists in the treatment of cartilage and bone pathologies” (priority 1999, published 2003).

Assays:
[1] = tested on: RARE/β-galactosidase reporter construct in F9 teratocarcinoma cell line; assay: F9 teratocarcinoma RARE/β-galactosidase reporter bioassay; format: cell-based
Protocol: The β-gal assay consists of an F9 teratocarcinoma cell line stably transfected with a reporter construct which contains a 64 bp retinoic acid-response element (RARE) from the promoter region of the human RARβ gene (Ellis et al., Nature 343, 377-381 (1990)) placed immediately upstream of the E. coli lacZ gene. […] Cells were maintained on gelatin-coated dishes in modified L15 CO2 tissue culture medium (Specialty Media, Lavallette, N.J.) supplemented with 20% fetal calf serum and 0.8 mg/ml G418 (complete medium), and were used when 80-90% confluent.
To prepare tissue extracts, tissues were surgically isolated from Day 10 chick embryos and included. The metaphyseal-diaphyseal portion of cartilaginous humerus and tibia from which adherent perichondral tissues were carefully removed, liver, brain, gizzard and heart. During isolation, all tissues were kept in saline on ice under yellow safety light conditions to protect the retinoids. […]
Briefly, cultures were fixed with 0.1% glutaraldehyde in 0.1 M phosphate buffer pH 7.0 for 15 min at room temperature. […] After rinsing again, cultures were extracted with 0.2 ml of DMSO and absorbance of the extracted material was determined at 655 nm using a Perkin-Elmer spectrophotometer. […]

[2] = tested on: humerus development (chondrocyte maturation, endochondral ossification); assay: Antagonist-filled bead implantation in chick embryo wing bud, humerus development; format: in vivo
Protocol: This procedure was carried out as described previously (Noji et al., Acta Histochem. Cytochem. 23, 353-366 (1990); Koyama et al., Dev. Dynam. 203, 152-162 (1995)). Briefly, chick embryos or embryo parts were fixed with 4% paraformaldehyde for 4 hr or overnight, embedded in paraffin and sectioned. The 5 μm thick sections were pretreated with 1 μg/ml proteinase K (Sigma, St. Louis, Mo.) in 50 mM Tris, 5 mM EDTA, pH 7.5 at room temperature for 1 min, immediately postfixed in 4% paraformaldehyde buffer for 10 min, and then washed twice in PBS containing 2 mg/ml glycine for 10 min/wash. Sections were treated for 15 min with a freshly prepared solution of 0.25% acetic anhydride in triethanolamine buffer. Sections were hybridized with ^35S-labeled antisense or sense chick cDNA riboprobes (approximately 1×10^6 DPM/section) at 50° C. for 16 hr. After hybridization, slides were washed three times with 2×SSC containing 50% formamide at 50° C. for 20 min/wash, treated with 20 μg/ml RNaseA for 30 min at 37° C., and finally washed three times with 0.1×SSC at 50° C. for 10 min/wash. Sections were coated with Kodak NTB3 emulsion diluted 1:1 with water, exposed for 7 days, and developed with Kodak D19 for 3 min at 20° C. After staining with hematoxylin and eosin, slides were analyzed with a Nikon microscope using bright and dark field optics.
This range of concentrations was based on previous studies (see, for example, Lu et al., Development 124, 1643-1651 (1997)). Antagonist solutions were prepared in DMSO and used under yellow light conditions; control beads were soaked in DMSO alone. Beads were then dipped very briefly in phenol red-containing saline (HBSS) so that they were more readily visible during implantation.
Antagonist-containing or control beads were implanted in the wing bud of stage 21-22 (Day 3-3.5) or stage 27-28 (Day 5.5) chick embryos (Hamburger and Hamilton, J. Morphol. 88, 49-92 (1951)); contralateral wing bud served as control. A small window was opened in the egg shell and a small incision was made on the antero-dorsal proximal portion of the bud. One bead or several beads were then placed in the vicinity of the prospective humerus as specified below, and eggs were sealed and returned to the incubator. On the day of analysis, embryos were sacrificed by decapitation, and control and operated wings were examined by microscopy, using a Nikon SMZ-U dissecting photomicroscope, and humerus length was measured micrometrically. Because length of control humeri varied slightly from embryo to embryo, possibly reflecting slight differences in age, humeri were considered affected by antagonist treatment only if their length was shortened at least 25% over control value. Companion control and antagonist-treated limbs were processed for histology and in situ hybridization using tissue sections.
Having shown that RAR gene expression changes during chondrocyte maturation and that the cartilaginous elements as well as their surrounding perichondrial tissues contain endogenous retinoids, experiments were carried out to determine what roles the RARs and their ligands may play during chondrocyte maturation and skeletogenesis (see Example I, Antagonist Treatment). To approach this question, a bead containing retinoid antagonists was implanted in the vicinity of the prospective humeral mesenchymal condensation in stage 21-22 (Day 3-3.5) chick embryos and determined whether humerus development had been impaired by Day 10 in vivo.

[3] = tested on: RARa, β and γ; details: cited from earlier work
[4] = target: T1, RARγ (Homo sapiens, UniProt P13631); assay: RAR antagonism, IC50 for RARγ (literature); format: biochemical
T1 sequence (P13631 1-454): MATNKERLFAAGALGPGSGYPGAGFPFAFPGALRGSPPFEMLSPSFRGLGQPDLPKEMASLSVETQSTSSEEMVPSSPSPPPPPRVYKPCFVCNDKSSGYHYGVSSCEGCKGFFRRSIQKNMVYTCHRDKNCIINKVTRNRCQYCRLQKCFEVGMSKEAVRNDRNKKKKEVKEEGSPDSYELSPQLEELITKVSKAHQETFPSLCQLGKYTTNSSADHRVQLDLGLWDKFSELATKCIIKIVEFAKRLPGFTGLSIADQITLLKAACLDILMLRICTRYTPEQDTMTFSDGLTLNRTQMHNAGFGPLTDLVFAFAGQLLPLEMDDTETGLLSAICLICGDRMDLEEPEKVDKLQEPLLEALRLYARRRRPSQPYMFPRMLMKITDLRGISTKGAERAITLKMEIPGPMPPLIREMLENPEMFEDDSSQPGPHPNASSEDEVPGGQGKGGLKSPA

[5] = target: T1, RARγ; details: cited from earlier work
[6] = tested on: cephalic core sternal chondrocytes; assay: Cultured cephalic core sternal chondrocytes, alkaline phosphatase and type X collagen gene expression; format: cell-based, chick
Protocol: (§1) Cell populations rich in prehypertrophic and early hypertrophic chondrocytes were isolated from the cephalic core region of Day 17-18 chick embryo sterna, while immature chondrocytes were isolated from the caudal sternal region (Gibson and Flint, J. Cell Biol. 101, 277-284 (1985); Pacifici et al., Exp. Cell Res. 195, 38-46 (1991); Iwamoto et al., Exp. Cell Res. 207, 413-420 (1993b)). The dissected cephalic and caudal tissues were incubated for 1 hr at 37° C. in saline containing 0.1% type 1-S collagenase (Sigma Chemical Co., St. Louis, Mo.); the cells released after this incubation were discarded as they consisted mainly of perichondrial and blood cells. The remaining tissue was incubated in a fresh mixture of 0.25% trypsin and 0.1% collagenase for 3 hr at which point it was completely digested. The freshly isolated chondrocytes were plated at a density of 2×10^5 cells/well in 12-well plates, 1×10^6 cells/60 mm dish or 3×10^6 cells/100 mm dish. The cephalic core chondrocytes were grown continuously, without subculturing, for 2 to 3 weeks in monolayer. During the first 2 days, cultures received 4 U/ml of testicular hyaluronidase to minimize cell detachment (Leboy et al., J. Biol. Chem. 264, 17281-17286 (1989)), and cultures became confluent by 2 weeks. The caudal immature chondrocytes were first grown for 5 days at which point floating immature chondrocytes were separated from attached contaminating fibroblastic cells. The floating cells were trypsinized and replated in secondary cultures in the presence of hyaluronidase to increase cell attachment. Cultures were fed every other day with Dulbecco's modified high-glucose Eagle's medium (GIBCO BRL, Gaithersburg, Md.) containing 10% defined fetal calf serum (Hyclone, Logan, Utah), 2 mM L-glutamine, and 50 U/ml penicillin and streptomycin (Pacifici et al., Exp. Cell Res. 195, 38-46 (1991)). When indicated, cultures were treated with all-trans-RA (Sigma) or combinations of all-trans-RA and Ro 41-5253. Stock solutions of these retinoids were prepared in DMSO and were diluted into working solutions in 95% ethanol; control dishes received an equivalent amount of vehicle without retinoids. To analyze mineralization, cephalic sternal control and retinoid-treated cultures were supplemented with 3 mM β-glycerophosphate to serve as a phosphate source. During these various regimens, medium was changed daily. To localize calcium deposits, the cell layers were stained with 0.5% alizarin red S solution, pH 4.0, for 5 min at room temperature. In experiments in which cultures were treated for 2, 4 or 6 days, retinoid treatments were initiated so that all cultures (including control cultures) were harvested simultaneously. […]

[7] = tested on: cephalic core sternal chondrocytes; assay: Mineralization of cultured cephalic core sternal chondrocytes, alizarin red staining; format: cell-based, chick; details: 6 days
Protocol: as §1, with “41-5253.” for “41-5253. Stock solutions of these retinoids were prepared in DMSO and were diluted into working solutions in 95% ethanol; control dishes received an equivalent amount of vehicle without retinoids. To analyze mineralization, cephalic sternal control and retinoid-treated cultures were supplemented with 3 mM β-glycerophosphate to serve as a phosphate source. During these various regimens, medium was changed daily. To localize calcium deposits, the cell layers were stained with 0.5% alizarin red S solution, pH 4.0, for 5 min at room temperature. In experiments in which cultures were treated for 2, 4 or 6 days, retinoid treatments were initiated so that all cultures (including control cultures) were harvested simultaneously.”

[8] = tested on: caudal sternal chondrocytes; assay: Cultured immature caudal sternal chondrocytes, Northern blot of type X collagen; format: cell-based, chick
Protocol: as §1, with “41-5253.” for “41-5253. Stock solutions of these retinoids were prepared in DMSO and were diluted into working solutions in 95% ethanol; control dishes received an equivalent amount of vehicle without retinoids. To analyze mineralization, cephalic sternal control and retinoid-treated cultures were supplemented with 3 mM β-glycerophosphate to serve as a phosphate source. During these various regimens, medium was changed daily. To localize calcium deposits, the cell layers were stained with 0.5% alizarin red S solution, pH 4.0, for 5 min at room temperature. In experiments in which cultures were treated for 2, 4 or 6 days, retinoid treatments were initiated so that all cultures (including control cultures) were harvested simultaneously.”

[9] = tested on: RARE/β-galactosidase reporter construct in F9 teratocarcinoma cell line; details: cited from earlier work
[10] = beads implanted Day 5.5, examined Day 8.5

## CC1=C(/C=C/C(C)=C\C=C\C(C)=C\C(=O)O)C(C)(C)CCC1 [9-cis-RA]
[1]; F9 reporter cells, unpublished observations
  efficiency of stimulating transcription, fold lower than all-trans-RA: 10 fold

## Cc1ccc(C2=CCC(C)(C)c3ccc(C#Cc4ccc(C(=O)O)cc4)cc32)cc1 [AGN 109]
[2]; 3-4 beads implanted Day 5.5 (stage 28), examined Day 8.5
  embryos with inhibited humerus development: 6/7
[2]; bead implanted at early stage, Day 10 humeri
  chondrocyte maturation and endochondral ossification in treated humerus (histology, in situ hybridization): chondrocyte maturation and long bone development are interrupted
[2]; bead implanted stage 21-22, Day 10
  concentration required for high frequency of humeral defects, relative to Ro 41-5253: much lower concentrations
[2]; [10]
  hypertrophy and RARγ / type X collagen transcripts in treated humeri: had not advanced to the hypertrophic stage and lacked transcripts encoding RARγ and type X collagen
  type II collagen expression in treated humeri (cell viability and differentiated functions): very strong expression of type II collagen
[2]; beads implanted stage 28 (Day 5.5), examined Day 14
  delay of humerus development (reversibility): about 5 days
[2]; single bead implanted Day 5.5 (stage 28), examined Day 8.5 (5/5)
  inhibition of humerus development: not very effective
[3]
  antagonism across RAR isotypes (selectivity in words): inhibits equally well RARa, β and γ
[4]
  fold lower IC50 for RARγ compared to Ro 41-5253: ~500 fold
[5]
  IC50: 5 nM

## CCCCCCCOc1cc2c(cc1/C(C)=C/c1ccc(C(=O)O)cc1)C(C)(C)CCS2(=O)=O [Ro 41-5253]
[2]; bead implanted stage 21-22, Day 10 embryos
  humerus shortening versus control contralateral humerus: about 50%
[3]
  antagonism across RAR isotypes (selectivity in words): antagonistic effects on all RAR isoforms but preferentially on RARa
[6]; antagonist alone
  alkaline phosphatase and type X collagen gene expression, antagonist alone: no major effects
[6]; co-treatment with 50 nM all-trans-RA, Ro 41-5253 at 500 nM
  effect on all-trans-RA responses of alkaline phosphatase and type X collagen genes: counteracted
[7]; 500 nM with 25 or 50 nM all-trans-RA
  mineralization on co-treatment with all-trans-RA: almost no mineralization
[7]; antagonist alone
  mineralization, antagonist alone: had no effects
[8]; antagonist alone
  type X collagen transcripts, antagonist alone: did not have major effects
[8]; co-treatment 500 nM with 50 nM all-trans-RA
  effect on all-trans-RA-induced increase in type X collagen transcripts: significantly, though not totally, blocked
[5]
  IC50: 3300 nM

## CC1=C(/C=C/C(C)=C/C=C/C(C)=C/C(=O)O)C(C)(C)CCC1 [all-trans-RA]
[9]
  lowest exogenous concentration to which reporter cells are very sensitive (high expression of β-gal): 10 pM
[6]; 50 nM
  alkaline phosphatase gene expression: increased dramatically
[6]; 50 nM, 6 days of treatment
  type X collagen expression: essentially eliminated
[1]; 3 nM, 24 hr, positive control
  β-galactosidase reporter response (histochemical): positive
[7]; 25 or 50 nM, with β-glycerophosphate
  mineral deposition (alizarin red): abundant alizarin red-stainable mineral
[8]; 50 nM, 2, 4 or 6 days
  type X collagen transcripts: marked time-dependent increase
